Legend:
[1] = Titration with 0.5 N sodium hydroxide (pKa); type: physicochemical
Procedure: A. 12.5 g. of crude 5-carboxy-3-cyano-3-(3-fluorophenyl)-5-methylhexanoic acid dimethyl ester was combined with 62.5 ml. of concentrated sulfuric acid and was heated at 70° C. for 2.5 hours. The reaction was quenched over ice and extracted with three-100 ml. portions of ethyl acetate. The ethyl acetate solution was extracted with pH 11 aqueous sodium hydroxide. The aqueous base layer was washed with ethyl acetate, and the aqueous layer was adjusted to pH 2 with hydrochloric acid and extracted with four-100 ml. portions of ethyl acetate. After drying over anhydrous sodium sulfate, the ethyl acetate extract was concentrated in vacuo to an oil and eventually to a white foam. This was triturated for 20 hours with isopropyl alcohol-diethyl ether to give, after drying at 110° C. at reduced pressure, 610 mg. of the title compound, m.p. 200°-202° C. (shrinks), 212°-215° C. (decomp.). Anal. (C14 H12 O3 NF). Calcd. C,64.36; H,4.63; N,5.36. Found: C,64.25; H,4.60; N,5.42. IR(KBr): 3228, 1723, 1705, 1692, 1605, 1343, 1236, 1199, 1186 cm^-1. NMR 250 MHZ (CD3 SOCD3):δ11.7 (vbs, 1, NH), 7.97(m, 1), 7.31(m, 1 ), 7.13(m, 1), 3.5-2.1(m, 5), and 1.16(d, 3) ppm. […] This experiment defines the structure of the major diasteromer as the title spiro[naphthalene pyrrolidine]trione rather than the alternate indanone spiro-methyl glutarimide cyclization product. […]

[2] = target: T1, aldose reductase obtained from human placenta (Homo sapiens, UniProt P15121); experiment: Inhibition of aldose reductase obtained from human placenta; type: biochemical; conditions: relative to activity in absence of inhibitor, read-out: percent inhibition of aldose reductase enzyme activity
T1 construct: aldose reductase obtained from human placenta; from tissue; host or cells: human placenta
Procedure: Rel 1,3'S,3R Spiro[naphthalene-1(4H),3'-pyrrolidine]-2',4,5'-trione-2,3-dihydro-7-fluoro-3-methyl, the product prepared according to the procedure of Example 1B, was tested for inhibition of aldose reductase obtained from human placenta by using the procedure described by M. J. Peterson et al. in Metabolism, Vol. 28, No. 4, Suppl. 1, p. 456 (1979). The results obtained are expressed in terms of the percent inhibition of aldose reductase enzyme activity (i.e., relative to the aldose activity in the absence of inhibitor) afforded by the compound at three different molar concentration levels (viz., 10^-5, 10^-6 and 10^-7 M).

[3] = tested on: sorbitol accumulation in the sciatic nerve and lens of diabetic rats; experiment: Inhibition of sorbitol accumulation in sciatic nerve and lens of streptozotocin-diabetic rats; type: in vivo; conditions: sacrifice at 27 h, relative to control
Procedure: Rel 1,3'S,3R Spiro[naphthalene-1(4H),3'-pyrrolidine]-2', 4,5'-trione-2,3-dihydro-7-fluoro-3-methyl, the product prepared according to the procedure of Example 1B, was tested for its ability to reduce or inhibit sorbitol accumulation in the sciatic nerve and lens of diabetic rats. This was done by following the procedure described by M. J. Peterson et al. in Metabolism, Vol. 28, No. 4, Suppl. 1, p. 456 (1979). A single intravenous dose of streptozotocin (85 mg./kg.) was administered to rats. The test compound was fed to the rats orally at four, seven and 24 hours after the administration of the streptozotocin. At 27 hours after streptozotocin administration, the animals were sacrificed and the sciatic nerve and lens were both removed for sorbitol assay. The control animals were given the same streptozotocin treatment, but were not given the test compound. The results obtained are expressed in terms of percent inhibition of sorbitol (i.e., relative to the control) afforded by the test compound in both the sciatic nerve and lens at three different dosage levels tested (viz., 2.5, 1.5 and 1.0 mg./kg.).

pKa ([1]; in 1:1 dioxane-water): 9.59 | pKa ([1]; in water): 8.25 | inhibition at 10 µM ([2]; 10^-5 M): 78% | inhibition at 1 µM ([2]; 10^-6 M): 41% | inhibition at 0.1 µM ([2]; 10^-7 M): 3%
SMILES: C[C@@H]1C[C@]2(CC(=O)NC2=O)c2cc(F)ccc2C1=O (relative stereo) [Example 1, Rel 1,3'S, 3R Spiro[naphthalene-1(4H), 3'-pyrrolidine]-2', 4,5'-trione-2,3-dihydro-7-fluoro-3-methyl]
percent inhibition of sorbitol ([3]; lens, 1.0 mg./kg. oral at 4, 7 and 24 h after streptozotocin): 39% | percent inhibition of sorbitol ([3]; lens, 1.5 mg./kg. oral at 4, 7 and 24 h after streptozotocin): 39% | percent inhibition of sorbitol ([3]; sciatic nerve, 1.0 mg./kg. oral at 4, 7 and 24 h after streptozotocin): 69% | percent inhibition of sorbitol ([3]; sciatic nerve, 1.5 mg./kg. oral at 4, 7 and 24 h after streptozotocin): 76%

— US4766141A, “Spiro-succinimides for treatment of diabetes complications” (Pfizer Inc., priority 1987, dated 1988)
